# Test system: Men who have advance prostate cancer on ADT
# Assay: Effect of cis-clomiphene on bone turnover markers and BMD (Example 2)
# Type: in vivo, human
# Settings: 50 mg/d for 6 months, Day 180 compared with baseline
# Description: Men who have advance prostate cancer on ADT are treated with 50 mg/d of substantially cis-clomiphene for 6 months. At Day 180, baseline bone turnover markers like serum bone specific alkaline phosphatase and are compared to current values as well as BMD by DEXA.
# Bone analysis methodology may be carried out as described in U.S. Patent Publication No. 2004/0214898, the pertinent contents of which are incorporated herein by reference.
structure (smiles),measurement,value
CCN(CC)CCOc1ccc(/C(=C(/Cl)c2ccccc2)c2ccccc2)cc1 [cis-clomiphene],effects on bone: bone turnover markers (serum bone specific alkaline phosphatase) and BMD by DEXA,estrogenic effects on bone favorably affecting bone turnover markers and BMD

# — patent US10758500B2, “Treating androgen deprivation therapy induced hot flashes and bone loss in men using cis-clomiphene” (ASPEN PARK PHARMACEUTICALS, INC., priority 2014, dated 2020)
